The record followed here is ChEMBL document CHEMBL4622872, “Discovery of DS-1971a, a Potent, Selective NaV1.7 Inhibitor” (J Med Chem, 2020).

Values after ≈ are worked out from the molar mass of the structure shown. A value given as a limit tells only on which side of the number the result lay.

Series [1] can be described thus: Distribution coefficient, log D of the compound in 1-octanol and PBS buffer at pH 7.4 measured after 30 mins by LC-MS analysis. The series is classed as physicochemical. The note with it: 1-octanol/PBS buffer.
The nature of series [2]: Stability of the compound in mouse liver microsomes assessed as parent compound remaining measured after 0.5 hrs. The series is classed as ADME, Microsome. The note with it: for remaining at 0.5 h: mouse liver microsomes, read-out: Stability.
Series [3] in a line: Aqueous thermodynamic solubility of the compound at pH 6.8 measured after 4 hrs by UV-HPLC analysis. The note with it: buffer, pH 6.8; read-out: Therm_solubility. The series is classed as physicochemical.

In series [1], `Cn1nccc1[C@H]1CCC[C@@H]1Oc1cc(F)c(S(=O)(=O)Nc2ncns2)cc1F` (racemic) registered a logD at 0.5 h of 0.6. Also, the remaining at 0.5 h in series [2] came out at 91%. Besides, in series [3], the solubility thermodynamic at 4 h is above 1900 µM.
`Cn1nccc1[C@H]1CCC[C@@H]1Oc1cc(F)c(S(=O)(=O)Nc2nccs2)cc1F` (racemic) returned a logD at 0.5 h in series [1] of 2.1. For the same compound, the remaining at 0.5 h in series [2] was 54%. The solubility thermodynamic at 4 h in series [3] came to 250 µM (≈ 110 µg/mL).
`Cn1nccc1[C@H]1CCCC[C@@H]1Oc1cc(F)c(S(=O)(=O)Nc2cscn2)cc1F` (racemic): the logD at 0.5 h in series [1] was determined as 1.8. Also, the remaining at 0.5 h in series [2] worked out at 28%. Moreover, the solubility thermodynamic at 4 h in series [3] came out at 660 µM (≈ 300 µg/mL).
In the same order, the values of `Cc1cc(S(=O)(=O)Nc2ccncn2)c(F)cc1O[C@H]1CCC[C@@H]1c1ccnn1C` (racemic) are 0.9, 87% and 1200 µM (≈ 518 µg/mL).
In the same order, the values of `Cn1nccc1[C@H]1CCC[C@@H]1Oc1cc(F)c(S(=O)(=O)Nc2ccncn2)cc1Cl` (racemic) are 0.9, 88% and 240 µM (≈ 108 µg/mL).
Consider `Cc1cc(S(=O)(=O)Nc2ccncn2)c(F)cc1O[C@H]1CCCC[C@@H]1c1ccnn1C` (racemic), for which the log distribution coefficient (logD) at 0.5 h in series [1] amounted to 0.9. In addition, the remaining at 0.5 h in series [2] stood at 75%. For the same compound, the solubility thermodynamic at 4 h in series [3] amounted to 1800 µM (≈ 802 µg/mL).
In the same order, the values of `Cn1nccc1[C@H]1CCCC[C@@H]1Oc1cc(F)c(S(=O)(=O)Nc2ccncn2)cc1F` (racemic) are 0.3, 80% and 1900 µM (≈ 854 µg/mL).
The compound `Cc1nsc(NS(=O)(=O)c2cc(F)c(O[C@H]3CCC[C@@H]3c3ccnn3C)cc2F)n1` (racemic) had a logD at 0.5 h in series [1] of 0.9. The remaining at 0.5 h in series [2] came out at 69%. Further, the solubility thermodynamic at 4 h in series [3] came to 1800 µM (≈ 820 µg/mL).
Turning to `Cn1nccc1[C@H]1CCCC[C@@H]1Oc1cc(F)c(S(=O)(=O)Nc2ncns2)cc1F` (racemic), the logD at 0.5 h in series [1] came to 0.7. Also, the remaining at 0.5 h in series [2] turned out to be 75%. The solubility thermodynamic at 4 h in series [3] was above 2000 µM.
In the same order, the values of `Cn1nccc1[C@H]1CCC[C@@H]1Oc1cc(F)c(S(=O)(=O)Nc2ccncn2)cc1F` (racemic) are 0.3, 100% and 740 µM (≈ 322 µg/mL).
In series [1], `Cn1nccc1[C@H]1CCCCC[C@@H]1Oc1cc(F)c(S(=O)(=O)Nc2ccncn2)c(F)c1` (racemic) gave a logD at 0.5 h of 0.6. In addition, the remaining at 0.5 h in series [2] stood at 97%. Also, the solubility thermodynamic at 4 h in series [3] is 1040 µM (≈ 482 µg/mL).
In the same order, the values of `Cn1nccc1[C@H]1CCC[C@@H]1Oc1cc(F)c(S(=O)(=O)Nc2ccncn2)c(F)c1` (racemic) are 0.1, 80% and 1800 µM (≈ 784 µg/mL).
In the same order, the values of `Cn1nccc1[C@H]1CCCC[C@@H]1Oc1cc(F)c(S(=O)(=O)Nc2ccncn2)c(F)c1` (racemic) are 0.1, 77% and 1800 µM (≈ 809 µg/mL).
In the same order, the values of `Cn1nccc1[C@H]1CCC[C@@H]1Oc1ccc(S(=O)(=O)Nc2ccncn2)c(F)c1F` (racemic) are 0.4, 82% and 550 µM (≈ 240 µg/mL).
On to `Cn1nccc1[C@H]1CCCC[C@@H]1Oc1cc(F)c(S(=O)(=O)Nc2ccncn2)cc1Cl` (racemic) [DS-1971], for which, in series [1], the log distribution coefficient (logD) at 0.5 h came to 0.8. Besides, in series [2] (microsomes, 0.5 h), the Stability is on record as 70%. Further, the solubility thermodynamic at 4 h in series [3] is above 2000 µM.
